ChEMBL document CHEMBL5154867, “Baylis-Hillman Adducts as a Versatile Module for Constructing Fluorogenic Release System” (J Med Chem, 2022)

What was measured:
[1] = Prodrug activation in PBS at pH 7.4 assessed as drug release by measuring maximal fluorescence change at 10 uM in presence of 2 mM GSH measured immediately relative to control; conditions: buffer, pH 7.4, 10 µM
[2] = Prodrug activation in PBS at pH 7.4 assessed as drug release by measuring maximal fluorescence change at 10 uM in presence of 2 mM GSH measured after 10 mins relative to control; conditions: buffer, pH 7.4, 10 min
[3] = Prodrug activation in PBS at pH 7.4 assessed as drug release by measuring maximal fluorescence change at 10 uM in presence of 2 mM GSH measured after 20 mins relative to control; conditions: buffer, pH 7.4, 20 min
[4] = Prodrug activation in PBS at pH 7.4 assessed as drug release by measuring maximal fluorescence change at 10 uM in presence of 2 mM GSH measured after 30 mins relative to control; conditions: buffer, pH 7.4, 0.5 h
[5] = Prodrug activation in PBS at pH 7.4 assessed as drug release by measuring maximal fluorescence change at 10 uM in presence of 2 mM GSH measured after 40 mins relative to control; conditions: buffer, pH 7.4, 40 min
[6] = Prodrug activation in PBS at pH 7.4 assessed as drug release by measuring maximal fluorescence change at 10 uM in presence of 2 mM GSH measured after 50 mins relative to control; conditions: buffer, pH 7.4, 50 min
[7] = Prodrug activation in PBS at pH 7.4 assessed as drug release by measuring maximal fluorescence change at 10 uM in presence of 2 mM GSH measured after 60 mins relative to control; conditions: buffer, pH 7.4, 1 h
[8] = Prodrug activation in PBS at pH 7.4 assessed as drug release at 10 uM in presence of 2 mM GSH measured immediately by HPLC analysis relative to control; conditions: buffer, pH 7.4, 10 µM
[9] = Prodrug activation in PBS at pH 7.4 assessed as drug release at 10 uM in presence of 2 mM GSH measured after 10 mins by HPLC analysis relative to control; conditions: buffer, pH 7.4, 10 min
[10] = Prodrug activation in PBS at pH 7.4 assessed as drug release at 10 uM in presence of 2 mM GSH measured after 20 mins by HPLC analysis relative to control; conditions: buffer, pH 7.4, 20 min
[11] = Prodrug activation in PBS at pH 7.4 assessed as drug release at 10 uM in presence of 2 mM GSH measured after 30 mins by HPLC analysis relative to control; conditions: buffer, pH 7.4, 0.5 h
[12] = Prodrug activation in PBS at pH 7.4 assessed as drug release at 10 uM in presence of 2 mM GSH measured after 40 mins by HPLC analysis relative to control; conditions: buffer, pH 7.4, 40 min
[13] = Prodrug activation in PBS at pH 7.4 assessed as drug release at 10 uM in presence of 2 mM GSH measured after 50 mins by HPLC analysis relative to control; conditions: buffer, pH 7.4, 50 min
[14] = Prodrug activation in PBS at pH 7.4 assessed as drug release at 10 uM in presence of 2 mM GSH measured after 60 mins by HPLC analysis relative to control; conditions: buffer, pH 7.4, 1 h
[15] = Prodrug activation in PBS at pH 7.4 assessed as drug release by measuring maximal fluorescence change at 10 uM in presence of 1 mM GSH measured immediately relative to control; conditions: buffer, pH 7.4, 10 µM
[16] = Prodrug activation in PBS at pH 7.4 assessed as drug release by measuring maximal fluorescence change at 10 uM in presence of 1 mM GSH measured after 10 mins relative to control; conditions: buffer, pH 7.4, 10 min
[17] = Prodrug activation in PBS at pH 7.4 assessed as drug release by measuring maximal fluorescence change at 10 uM in presence of 1 mM GSH measured after 20 mins relative to control; conditions: buffer, pH 7.4, 20 min
[18] = Prodrug activation in PBS at pH 7.4 assessed as drug release by measuring maximal fluorescence change at 10 uM in presence of 1 mM GSH measured after 30 mins relative to control; conditions: buffer, pH 7.4, 0.5 h
[19] = Prodrug activation in PBS at pH 7.4 assessed as drug release by measuring maximal fluorescence change at 10 uM in presence of 1 mM GSH measured after 40 mins relative to control; conditions: buffer, pH 7.4, 40 min
[20] = Prodrug activation in PBS at pH 7.4 assessed as drug release by measuring maximal fluorescence change at 10 uM in presence of 1 mM GSH measured after 50 mins relative to control; conditions: buffer, pH 7.4, 50 min
[21] = Prodrug activation in PBS at pH 7.4 assessed as drug release by measuring maximal fluorescence change at 10 uM in presence of 1 mM GSH measured after 60 mins relative to control; conditions: buffer, pH 7.4, 1 h
[22] = Prodrug activation in PBS at pH 7.4 assessed as drug release at 10 uM in presence of 1 mM GSH measured immediately by HPLC analysis relative to control; conditions: buffer, pH 7.4, 10 µM
[23] = Prodrug activation in PBS at pH 7.4 assessed as drug release at 10 uM in presence of 1 mM GSH measured after 10 mins by HPLC analysis relative to control; conditions: buffer, pH 7.4, 10 min
[24] = Prodrug activation in PBS at pH 7.4 assessed as drug release at 10 uM in presence of 1 mM GSH measured after 20 mins by HPLC analysis relative to control; conditions: buffer, pH 7.4, 20 min
[25] = Prodrug activation in PBS at pH 7.4 assessed as drug release at 10 uM in presence of 1 mM GSH measured after 30 mins by HPLC analysis relative to control; conditions: buffer, pH 7.4, 0.5 h
[26] = Prodrug activation in PBS at pH 7.4 assessed as drug release at 10 uM in presence of 1 mM GSH measured after 40 mins by HPLC analysis relative to control; conditions: buffer, pH 7.4, 40 min
[27] = Prodrug activation in PBS at pH 7.4 assessed as drug release at 10 uM in presence of 1 mM GSH measured after 50 mins by HPLC analysis relative to control; conditions: buffer, pH 7.4, 50 min
[28] = Prodrug activation in PBS at pH 7.4 assessed as drug release at 10 uM in presence of 1 mM GSH measured after 60 mins by HPLC analysis relative to control; conditions: buffer, pH 7.4, 1 h
[29] = Prodrug activation in PBS at pH 7.4 assessed as drug release by measuring maximal fluorescence change at 10 uM in presence of 2 mM GSH measured after 60 to 300 mins relative to control; conditions: buffer, pH 7.4, 10 µM, time 60-300 min
[30] = Prodrug activation in PBS at pH 7.4 assessed as drug release at 10 uM in presence of 2 mM GSH measured after 60 to 300 mins by HPLC analysis relative to control; conditions: buffer, pH 7.4, 10 µM, time 60-300 min

SMILES	Activity [15] [%]	Activity [16] [%]	Activity [17] [%]	Activity [18] [%]	Activity [19] [%]	Activity [20] [%]	Activity [21] [%]	Activity [22] [%]	Activity [23] [%]	Activity [24] [%]	Activity [25] [%]	Activity [26] [%]	Activity [27] [%]	Activity [28] [%]	also measured
C=C(COC(=O)c1ccccc1)C(=O)c1ccc2cc(N(C)C)ccc2c1	–	–	–	–	–	–	–	–	–	–	–	–	–	–	Activity [1]: 1.4%; Activity [2]: 40.1%; Activity [3]: 71.2%; Activity [4]: 88.1%; Activity [5]: 95.7%; Activity [6]: 97.8%; Activity [7]: 83.2%; Activity [8]: 0%; Activity [9]: 92.8%; Activity [10]: 97.3%; Activity [11]: 98.6%; Activity [12]: 98.7%; Activity [13]: 99.9%; Activity [14]: 72.1%
C=C(COC(=O)Nc1ccccc1)C(=O)c1ccc2cc(N(C)C)ccc2c1	2.7	39.3	64.6	79.9	88.9	94.6	96.5	0	82.6	91.1	96.5	97.1	97.9	98.2	–
C=C(COC(=O)OCc1ccccc1)C(=O)c1ccc2cc(N(C)C)ccc2c1	3.9	41	65.4	83.6	96.5	96.5	97.4	0	93.4	94.5	95.5	94.6	94.6	95.1	–
C=C(C[N+](C)(C)Cc1ccccc1)C(=O)c1ccc2cc(N(C)C)ccc2c1.[Br-]	0.5	48.1	90.6	90.6	97.2	98.4	99	0	95.6	97.8	98.2	98.5	99.6	98.9	–
C=C(COC(=O)Cc1ccccc1)C(=O)c1ccc2cc(N(C)C)ccc2c1	1.2	42.4	71.5	89.2	95.3	97.7	98.1	0	94.3	97.1	98.3	97.5	98.7	99.1	–
C=C(COc1ccccc1)C(=O)c1ccc2cc(N(C)C)ccc2c1	0.7	38.8	70.1	87.9	95.5	97.3	99.1	0	91.2	93.5	93.5	92.7	93.2	93.5	–
C=C(CSc1ccccc1)C(=O)c1ccc2cc(N(C)C)ccc2c1	3.1	27.2	53.5	72.2	86.3	93.7	96.5	0	42.6	76.6	90.6	95.1	94.8	95.4	–
C=C(CN(C)Cc1ccccc1)C(=O)c1ccc2cc(N(C)C)ccc2c1	3.8	50.5	72.5	85.1	93.5	96.5	97.1	0	88.2	91.8	92.2	92	93.1	92.4	–
C=C(CSCc1ccccc1)C(=O)c1ccc2cc(N(C)C)ccc2c1	–	–	–	–	–	–	–	–	–	–	–	–	–	–	Activity [1]: 4.8%; Activity [2]: 14.8%; Activity [3]: 22.1%; Activity [4]: 27.5%; Activity [5]: 42.2%; Activity [6]: 78.3%; Activity [29]: 98.6%; Activity [8]: 0%; Activity [9]: 5.6%; Activity [10]: 13.9%; Activity [11]: 19.9%; Activity [12]: 35.2%; Activity [13]: 68.6%; Activity [30]: 99.9%
